In the NIST ThermoML archive (doi:10.1016/j.jct.2018.06.014):
Numbers after ± are expanded uncertainties.

Experiments:
[1] = for Normal melting temperature: Crystal 1, DTA; for Glass transition temperature: DSC
[2] = Molar enthalpy of transition or fusion; details: Crystal 1; DSC

Row | Structure (SMILES) | Normal melting temperature [1] [°C] | Molar enthalpy of transition or fusion [2] [kcal/mol] | Glass transition temperature [1] [°C]
1 | CCCCn1cc[n+](C)c1.O=S(=O)([O-])C(F)(F)F [1-butyl-3-methylimidazolium trifluoromethanesulfonate] | 18.00 ± 2 | 6.21 ± 0.717 | 
2 | CCCC[N+]1(C)CCCCC1.O=S(=O)([O-])C(F)(F)F [1-butyl-1-methylpiperidinium trifluoromethanesulfonate] | 36.00 ± 2 | 5.5 ± 0.478 | 
3 | CCCC[N+]1(C)CCCCC1.O=S(=O)([N-]S(=O)(=O)C(F)(F)F)C(F)(F)F |  |  | -72.00 ± 2
4 | COP(=O)([O-])OC.Cn1cc[n+](C)c1 [1,3-dimethylimidazolium dimethylphosphate] |  |  | -63.00 ± 2

Now from value to compound, other results behind:

Row | Normal melting temperature [1] [°C] | Molar enthalpy of transition or fusion [2] [kcal/mol] | Structure (SMILES) | Glass transition temperature [1] [°C]
5 | 39.00 ± 2 | 3.35 ± 0.478 | CCN(C)CC.CS(=O)(=O)O [diethylmethylammonium methanesulfonate] | 
6 | -5.00 ± 2 | 4.06 ± 0.478 | CC[NH+](C)CC.O=S(=O)([O-])C(F)(F)F [diethylmethylammonium trifluoromethanesulfonate] | 
